Assay results taken from ChEMBL document CHEMBL3745602, “Design, synthesis and in vivo screening of some novel quinazoline analogs as anti-hyperlipidemic and hypoglycemic agents” (2016).

How the values were obtained:
Assay type in all cases: functional
[1] = test system: Rattus norvegicus; experiment: Hypolipidemic activity in high fat-induced hyperlipidemic Sprague-Dawley rat assessed as cholesterol level at 250 mg/kg, po dosed for last 7 days during 30 day high-fat diet feeding schedule (reference value: 70.8 +/- 0.5 mg/dl)
[2] = test system: Rattus norvegicus; experiment: Hypolipidemic activity in high fat-induced hyperlipidemic Sprague-Dawley rat assessed as triglyceride level at 250 mg/kg, po dosed for last 7 days during 30 day high-fat diet feeding schedule (reference value: 74.3+/- 0.48 mg/dl)
[3] = test system: Rattus norvegicus; experiment: Hypolipidemic activity in high fat-induced hyperlipidemic Sprague-Dawley rat assessed as VLDL level at 250 mg/kg, po dosed for last 7 days during 30 day high-fat diet feeding schedule (reference value: 23.48+/- 0.78 mg/dl)
[4] = test system: Rattus norvegicus; experiment: Hypolipidemic activity in high fat-induced hyperlipidemic Sprague-Dawley rat assessed as LDL level at 250 mg/kg, po dosed for last 7 days during 30 day high-fat diet feeding schedule (reference value: 22.42 +/- 0.41 mg/dl)
[5] = test system: Rattus norvegicus; experiment: Hypolipidemic activity in high fat-induced hyperlipidemic Sprague-Dawley rat assessed as HDL level at 250 mg/kg, po dosed for last 7 days during 30 day high-fat diet feeding schedule (reference value: 37.5 +/- 0.96 mg/dl)
[6] = test system: Rattus norvegicus; experiment: Hypolipidemic activity in high fat-induced hyperlipidemic Sprague-Dawley rat assessed as ratio of cholesterol level to HDL level at 250 mg/kg, po dosed for last 7 days during 30 day high-fat diet feeding schedule (reference value: 1.88 +/- 0.05)
[7] = test system: Rattus norvegicus; experiment: Effect on body weight in Sprague-Dawley rat at 250 mg/kg, po dosed for last 7 days during 30 day high-fat diet feeding schedule measured every 5th day (reference value: 207.67 +/- 1.2 g)
[8] = test system: Rattus norvegicus; experiment: Hypoglycemic activity in Sprague-Dawley rat assessed as blood glucose level at 250 mg/kg, po dosed for last 7 days during 30 day high-fat diet feeding schedule (reference value: 63.70 +/- 0.7 mg/dl)

SMILES | Activity [1] [mg/dL] | Activity [2] [mg/dL] | Activity [3] [mg/dL] | Activity [4] [mg/dL] | Activity [5] [mg/dL] | Ratio [6] | Activity [7] [g] | Activity [8] [mg/dL]
CC1N(c2ccc(OCC(=O)O)cc2)C(=O)c2ccccc2N1c1ccccc1 (configuration not stated) | 108.9 | 158.8 | 12.21 | 70.91 | 41.4 | 2.67 | 274.7 | 114.1
CC(C)(Oc1ccc(-n2c(-c3ccccc3)nc3ccccc3c2=O)cc1)C(=O)O | 97.5 | 158 | 24.3 | 64.33 | 31.6 | 3.11 | 284.5 | 114.8
Cc1nc2cc(O)ccc2c(=O)n1-c1ccc(OCC(=O)O)cc1 | 77 | 116.8 | 37.7 | 47.05 | 40.5 | 1.88 | 261.7 | 85.3
Cc1nc2ccccc2c(=O)n1-c1ccc(OC(C)(C)C(=O)O)cc1 | 93 | 154.1 | 37.05 | 44.66 | 40 | 2.32 | 272.17 | 89.19
Cc1nc2cc(O)ccc2c(=O)n1-c1ccc(OC(C)(C)C(=O)O)cc1 | 77.7 | 114.8 | 35.38 | 35.81 | 40.8 | 1.9 | 260.1 | 83
O=C(O)COc1ccc(-n2c(-c3ccccc3)nc3ccccc3c2=O)cc1 | 110.8 | 144.8 | 28.16 | 57.22 | 33.7 | 3.26 | 281.2 | 112.8
CC1N(c2ccc(OC(C)(C)C(=O)O)cc2)C(=O)c2ccccc2N1c1ccccc1 (configuration not stated) | 106.4 | 154.8 | 22.05 | 54.78 | 25.5 | 4.15 | 277.3 | 115
CC(C)OC(=O)C(C)(C)Oc1ccc(C(=O)c2ccc(Cl)cc2)cc1 [FENOFIBRATE] | 85.4 | 125.3 | 37 | 54.66 | 34.38 | 2.49 | 269 | 86.41
Cc1nc2ccccc2c(=O)n1-c1ccc(OCC(=O)O)cc1 | 78.5 | 117.1 | 34.89 | 47.66 | 39.1 | 1.99 | 273.85 | 91.8
